Experimental findings from ChEMBL document CHEMBL1201862, “PubChem BioAssay data set” (2004) are described below.

Holding throughout (assay): NCI tumour cell line growth inhibition, 48 h
In experiment [1] the test system is CCRF-CEM.
Experiment [2] deals with UO-31.
Experiment [3] relates to DU-145.
Experiment [4] has as its system HCC 2998.
Experiment [5] has as its system SR.
Experiment [6] deals with HOP-62.
The subject of experiment [7] is NCI-H522.
Experiment [8] relates to HCT-15.
For experiment [9], the system named is 786-0.
Experiment [10] concerns A498.
Experiment [11] relates to SN12C.
The test system of experiment [12] is HT-29.
The test system of experiment [13] is SK-MEL-2.
Experiment [14] relates to CAKI-1.
In experiment [15] the test system is HCT-116.
Experiment [16] has as its system SW-620.
Experiment [17] has as its system SK-MEL-28.
Experiment [18] concerns UACC-62.
Experiment [19] concerns LOX IMVI.
In experiment [20] the test system is MDA-N.

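In this assay, cells in 96-well plates receive the compound at five concentrations for 48 hours. Endpoints are linearly interpolated between the surrounding concentrations. GI50 = concentration required for 50% inhibition of growth.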 Activity calls are given as the source filed them. No stated cut-off is given here; in the data, active = GI50 up to about 1.1 µM and inactive = higher.

For `O=C(O)Cc1ccc(Oc2nc3ccccc3nc2-c2ccccc2)cc1`, the GI50 in experiment [1] was 61.4 µM (inactive); in [2], 36.6 µM (inactive); in experiment [3] it was 69.7 µM (inactive); in experiment [4] it was 49.5 µM (inactive); in [5] it was 4.22 µM (inactive); in experiment [6], > 100 µM (inactive). For the same compound, the GI50 in experiment [7] is 42.1 µM (inactive); in experiment [8], 65.3 µM; in experiment [9], > 100 µM (inactive); in experiment [10], > 100 µM (inactive); in [11], 70 µM (inactive); in [12] it was 61.9 µM (inactive). In addition, the GI50 in experiment [13] is 70 µM (inactive); in experiment [14], 63.5 µM (inactive); in experiment [15], 85.7 µM (inactive); in experiment [16], 63.1 µM (inactive); in experiment [17], 90.6 µM (inactive); in [18], 24.9 µM (inactive). The GI50 in [19] was 60.3 µM (inactive).
Regarding `COC(=O)C(Cc1ccccc1)NC(=O)CNC(=O)CSc1nnc(COc2ccc(Cl)cc2)n1-c1ccccc1` (stereo not given), the GI50 is 2.86 µM (inactive) in experiment [1]; 1.69 µM (inactive) in experiment [2]; 17.5 µM (inactive) in [3]; 12 µM (inactive) in [4]; 2.64 µM (inactive) in experiment [5]; 17.7 µM (inactive) in experiment [6]. Also, the GI50 in experiment [7] was 2.27 µM (inactive); in [8], 18.1 µM; in experiment [9], 16.7 µM (inactive); in [10], 15.5 µM (inactive); in [11] it was 17.9 µM (inactive); in experiment [12] it was 18.8 µM (inactive). The GI50 in experiment [13] was 17 µM (inactive); in experiment [14], 12.7 µM (inactive); in [15], 17.8 µM (inactive); in [16] it was 20.4 µM (inactive); in [17], 18 µM (inactive); in experiment [18] it was 14.5 µM (inactive). Moreover, in experiment [19], the GI50 is 3.69 µM (inactive).
With `CC(C)(C)OC(=O)N1C[C@H](CC(=O)OCc2ccccc2)C[C@H]1C(=O)OCC(Cl)(Cl)Cl`, the GI50 in [1] was 1.35 µM (inactive); in experiment [2], 3.94 µM (inactive); in [3] it was > 50 µM (inactive); in experiment [4], 10.7 µM (inactive); in [5], 2.04 µM (inactive); in experiment [6], 22.8 µM (inactive). Moreover, the GI50 in [7] was 1.62 µM (inactive); in experiment [8], 3.27 µM; in experiment [9], 5.96 µM (inactive); in [10], 3.44 µM (inactive); in experiment [11] it was 6.62 µM (inactive); in experiment [12], 4.7 µM (inactive). The GI50 in experiment [13] was 6.7 µM (inactive); in experiment [14], 3.7 µM (inactive); in experiment [15], 3.88 µM (inactive); in experiment [16], 11.4 µM (inactive); in experiment [17] it was 13.6 µM (inactive); in [18], 5.6 µM (inactive). Besides, the GI50 in experiment [19] was 4.97 µM (inactive).
Take `CN1CCC2(CC1)C(=O)N(NC(N)=O)C(=O)C2c1ccccc1` (stereo not given): the GI50 in [20], in experiment [1], in [2], in [3], in [4] and in experiment [6] was > 100 µM (inactive) in each case. The GI50 in experiment [8] was over 100 µM; in [9], > 100 µM (inactive); in experiment [11], > 100 µM (inactive); in experiment [12], > 100 µM (inactive); in experiment [13] it was > 100 µM (inactive); in [14], > 100 µM (inactive). Also, the GI50 in [15], in [16], in experiment [17], in experiment [18] and in experiment [19] was > 100 µM (inactive) in each case.
For the compound `CC(=O)OC1CC2C(C)(C)C(=O)C=CC2(C)C2CCC3(C)C(c4ccoc4)OC(=O)C4OC43C12C` (stereo not given), the GI50 in experiment [2] was 4.23 µM (inactive); in [3] it was 2.85 µM (inactive); in experiment [4], 3.33 µM (inactive); in experiment [6], 26 µM (inactive); in experiment [7], 5.18 µM (inactive); in experiment [8] it was 5.07 µM. The GI50 in experiment [9] is 9.46 µM (inactive); in experiment [10], 24.9 µM (inactive); in experiment [11], 4.21 µM (inactive); in experiment [12], 7.46 µM (inactive); in [13] it was 13 µM (inactive); in experiment [14], 11.9 µM (inactive). Besides, the GI50 is 2.4 µM (inactive) in experiment [15], 6.28 µM (inactive) in [16], 20.4 µM (inactive) in experiment [17] and 5.37 µM (inactive) in [18].
`N#CC(C(=O)c1cccnc1Cl)c1nc2cc(C(F)(F)F)ccc2s1` (stereo not given): the GI50 in experiment [2] was 39.8 µM (inactive); in [3], > 100 µM (inactive); in experiment [6] it was 34.8 µM (inactive); in experiment [7], 19.8 µM (inactive); in [8] it was 35.3 µM; in experiment [9], 88.9 µM (inactive). The GI50 was 26.7 µM (inactive) in experiment [10]; 27.7 µM (inactive) in experiment [11]; 28.3 µM (inactive) in experiment [12]; > 100 µM (inactive) in [14]; 26.1 µM (inactive) in experiment [15]; 47.1 µM (inactive) in [16]. For the same compound, the values for the GI50 in [17] and in [19] were 56.8 µM (inactive) and 37.3 µM (inactive), respectively.
For the compound `NC(=O)c1c2c(n3ccccc13)C(=O)c1ccccc1C2=O`, the GI50 in experiment [1] was > 100 µM (inactive); in experiment [2], > 100 µM (inactive); in experiment [3] it was > 100 µM (inactive); in experiment [4] it was > 100 µM (inactive); in experiment [5], > 100 µM (inactive); in experiment [6] it was 30.2 µM (inactive). In addition, the GI50 in experiment [8] was over 100 µM; in experiment [9], 71.8 µM (inactive); in experiment [10], > 100 µM (inactive); in experiment [12], 32.2 µM (inactive); in experiment [13], 32.3 µM (inactive); in experiment [14], > 100 µM (inactive). For the same compound, the GI50 was > 100 µM (inactive) in [15]; > 100 µM (inactive) in [16]; > 100 µM (inactive) in [17]; 68.2 µM (inactive) in experiment [18]; > 100 µM (inactive) in [19].
Take `Nc1ccc(S(=O)(=O)Nc2nnc(S(N)(=O)=O)s2)cc1`: the GI50 was > 100 µM (inactive) in experiment [2]; > 100 µM (inactive) in [3]; > 100 µM (inactive) in experiment [4]; > 100 µM (inactive) in [5]; > 100 µM (inactive) in [7]; over 100 µM in experiment [8]. In addition, the GI50 in experiment [9], in experiment [10], in [12], in experiment [14], in experiment [15] and in experiment [16] was > 100 µM (inactive) throughout. Moreover, the GI50 in experiment [18] and in experiment [19] was > 100 µM (inactive) in each case.
For `CSc1nncc(-c2cc3c(c(SC)n2)CCC3)n1`, the GI50 was > 100 µM (inactive) in experiment [1]; > 100 µM (inactive) in experiment [2]; > 100 µM (inactive) in experiment [3]; > 100 µM (inactive) in experiment [6]; 28.8 µM (inactive) in [7]; over 100 µM in experiment [8]. Also, the GI50 in experiment [9] was 79.6 µM (inactive); in [11], > 100 µM (inactive); in experiment [12] it was > 100 µM (inactive); in [13], > 100 µM (inactive); in experiment [14] it was 40.7 µM (inactive); in experiment [15], 96.2 µM (inactive). Further, the figures for the GI50 in [16], in experiment [17] and in experiment [18] were 82.4 µM (inactive), > 100 µM (inactive) and > 100 µM (inactive), respectively.
